We go through eight compounds from patent US20250302912A1, “COMPOSITION INCLUDING PEPTIDE COMPOUND AND SURFACTANT” (CHUGAI SEIYAKU KABUSHIKI KAISHA, priority 2021, published 2025).

Converted amounts (≈) assume the structure as drawn. Bridge positions count the residues as written; N and C are the ends. Square brackets hold non-standard residues; d marks the D form. Peptide text beside a SMILES is read from it. * marks the point of attachment. Ala(4-thiazolyl) = N[C@@H](Cc1cscn1)C(=O)O; NMeNle(6-CHF2) = CN[C@@H](CCCCC(F)F)C(=O)O; Phe(3-Cl) = N[C@@H](Cc1cccc(Cl)c1)C(=O)O; NMehPhe = CN[C@@H](CCc1ccccc1)C(=O)O; NMeF = CN[C@@H](Cc1ccccc1)C(=O)O; NMeD = CN[C@@H](CC(=O)O)C(=O)O; NMeS = CN[C@@H](CO)C(=O)O; Pip = O=C(O)[C@@H]1CCCCN1; Nle = CCCC[C@H](N)C(=O)O; Pyrrolidide = C1CCN(*)C1; dNMeA = CN[C@H](C)C(=O)O; Propyl = CCC*

Series [1] can be described thus: Evaluation of Caco-2 membrane permeability. The settings on record: human, Caco-2, pH 6.5, Permeability coefficient (Caco-2 Papp), FaSSIF/HBSS buffer pH 6.5 apical. In general terms: Passage across Caco-2 layers is used to estimate intestinal permeability.
Experimental: Caco-2 cells were cultured on 96-well Transwell for 3 weeks. […] Each well was shaken at 5% CO2, 37° C., 80 rpm, and at 180 minutes after the start, a sample on the Basal side was taken and the permeation amount of the compound was measured by liquid chromatography-mass spectrometry (LC/MS/MS). From the permeation amount, the permeability coefficient (Caco-2 Papp (cm/sec)) was calculated.
As comparative examples, the permeation amount was measured by the same procedure as described above except that a FaSSIF/HBSS buffer (pH 6.5) without 5 mM lauroyl-L-carnitine was used. […] From the measured permeation amount, the permeability coefficient was calculated.
Series [2] is described as follows: Evaluation of solubility in 50 mM phosphate buffer (PPB, pH 6.5). Format: physicochemical. The settings on record: 50 mM phosphate buffer pH 6.5, 37° C., 1 atm, 22 to 24 hours. How it is done: To an excess amount of lyophilized powder of the compound, 50 mM phosphate buffer (PPB: Phosphate buffer, pH 6.5) is added, and after shaking (37° C., 1 atm, 1800 rpm, for 22 to 24 hours), the mixture is filtered with a filter, and the compound concentration of the filtrate is measured by LC/MS/MS. Solubility (μg/mL) is calculated from the measured compound concentration.
Solubility (g/mL) was calculated from the measured compound concentration.

For the next series, the system named is claudin protein. The settings on record: Drug Metab. Pharmacokinet., 26 (2): 162170 (2011); cited from earlier work.
[3] abbreviates: Without 5 mM lauroyl-L-carnitine.

`CC[C@H](C)[C@@H]1NC(=O)[C@H](CC(C)C)N(C)C(=O)CC(C(=O)N2CCOCC2)N(C)C(=O)[C@H](C2CCCC2)N(C)C(=O)C2(CCCC2)NC(=O)[C@@H]2CCCN2C(=O)[C@H](CCc2ccc(C(F)(F)F)c(Cl)c2)NC(=O)CN(C)C(=O)[C@H](C2CCCC2)N(C)C(=O)[C@@H]2CCN2C(=O)[C@H](C)NC1=O` (single isomer, unassigned) [Compound 10]: the Papp A→B – broadly, the apparent permeability from the apical to the basolateral side of a cell layer – at 180 min in series [1] (setting [3]) was < 0.00976 ×10⁻⁶ cm/s.
As for `CCCC[C@@H]1NC(=O)[C@@H]2CCCN2C(=O)[C@H](CCCC)NC(=O)[C@@H](C)N(C)C(=O)C[C@@H](C(=O)N2CCCC2)N(C)C(=O)[C@@H]2CCCN2C(=O)[C@H]([C@@H](C)CC)NC(=O)[C@@H]2CCCCN2C(=O)[C@H](Cc2cccc(Cl)c2)NC(=O)[C@H](COCCC)N(C)C(=O)[C@H](Cc2ccccc2)N(C)C1=O` [Compound 5] ([dNMeA][Nle]P[Nle][NMeF][NMeS](Propyl)[Phe(3-Cl)][Pip]IP[NMeD]-Pyrrolidide; lactam N-11), in series [2], the solubility (commonly the dissolved amount per volume that the medium holds) was < 1.09 µg/mL. The results for the Papp A→B at 180 min in series [1] (With 5 mM lauroyl-L-carnitine) and in series [1] (setting [3]) were 0.0264 ×10⁻⁶ cm/s and 0.00372 ×10⁻⁶ cm/s, respectively.
As to `CCCCCCCCCCCC(=O)O[C@H](CC(=O)[O-])C[N+](C)(C)C` [lauroyl-L-carnitine], in the series with claudin protein, the “Effect on expression of claudin protein / tight junction” value was “suppresses the expression of claudin protein and thus expands the tight junction”.
With `CC[C@H](C)[C@@H]1NC(=O)[C@H](CC(C)C)N(C)C(=O)CC(C(=O)N2CCOCC2)N(C)C(=O)[C@H](C2CCCC2)N(C)C(=O)C2(CCCC2)NC(=O)[C@@H]2CCCN2C(=O)[C@H](CCc2ccc(C(F)(F)F)c(Cl)c2)NC(=O)CN(C)C(=O)[C@H](CC2CCCCC2)N(C)C(=O)[C@@H]2CCN2C(=O)[C@H](C)N(C)C1=O` (single isomer, unassigned) [Compound 2], the Papp A→B at 180 min in series [1] (With 5 mM lauroyl-L-carnitine) worked out at 0.265 ×10⁻⁶ cm/s; in series [1] (setting [3]), 0.0491 ×10⁻⁶ cm/s.
Turning to `CC[C@H](C)[C@@H]1NC(=O)[C@H](Cc2ccccc2)N(C)C(=O)CN(C)C(=O)C[C@@H](C(=O)N2CCCCC2)NC(=O)[C@H](CC(C)C)N(C)C(=O)[C@H](COC(C)(C)C)NC(=O)[C@H](CC(C)C)N(C)C(=O)[C@H](CCc2ccccc2)N(C)C(=O)CN(C)C(=O)[C@H]([C@@H](C)O)NC(=O)[C@H](CC(C)C)N(C)C1=O` (stereo in doubt) [Compound 7], the Papp A→B at 180 min in series [1] (With 5 mM lauroyl-L-carnitine) is 0.526 ×10⁻⁶ cm/s; in series [1] (setting [3]), < 0.0944 ×10⁻⁶ cm/s.
With `CC[C@H](C)[C@@H]1NC(=O)C(CC(C)C)N(C)C(=O)CC(C(=O)N(C)C)N(C)C(=O)[C@H](C2CCCC2)N(C)C(=O)C(C)NC(=O)C(C)N(C)C(=O)[C@H](CCc2ccc(C(F)(F)F)c(Cl)c2)NC(=O)CN(C)C(=O)[C@H](CC2CCCCC2)N(C)C(=O)[C@@H]2CCN2C(=O)[C@H](C)N(C)C1=O` (single isomer, unassigned) [Compound 9], the apparent permeability from apical to basolateral (Papp A→B) at 180 min was 0.0214 ×10⁻⁶ cm/s in series [1] (With 5 mM lauroyl-L-carnitine) and 0.00949 ×10⁻⁶ cm/s in series [1] (setting [3]).
As for `CC[C@H](C)[C@@H]1NC(=O)[C@H](Cc2ccccc2)N(C)C(=O)[C@H](Cc2cscn2)NC(=O)[C@@H](C)N(C)C(=O)C[C@@H](C(=O)N2CCCC2)NC(=O)[C@@H]2CCCN2C(=O)[C@H](CCCCC(F)F)N(C)C(=O)CNC(=O)[C@H](Cc2ccccc2)N(C)C(=O)[C@@H]2CCCN2C(=O)[C@H](CCc2ccccc2)N(C)C1=O` [Compound 4] ([dNMeA][Ala(4-thiazolyl)][NMeF]I[NMehPhe]P[NMeF]G[NMeNle(6-CHF2)]PD-Pyrrolidide; lactam N-11), the solubility in series [2] came to 103 µg/mL (≈ 71.2 µM). The Papp A→B at 180 min in series [1] (With 5 mM lauroyl-L-carnitine) is 0.012 ×10⁻⁶ cm/s; in series [1] (setting [3]), < 0.0107 ×10⁻⁶ cm/s.
On to `CC[C@H](C)[C@@H]1NC(=O)[C@H](CC(C)C)N(C)C(=O)CC(C(=O)N2CCCCC2)N(C)C(=O)[C@H](C2CCCC2)N(C)C(=O)C2(CCCC2)NC(=O)[C@@H]2CCCN2C(=O)[C@H](CCc2ccc(C(F)(F)F)c(Cl)c2)NC(=O)CN(C)C(=O)[C@H](CC2CCCCC2)N(C)C(=O)[C@@H]2CCN2C(=O)[C@H](C)N(C)C1=O` (single isomer, unassigned) [Compound 8], for which the Papp A→B at 180 min in series [1] (With 5 mM lauroyl-L-carnitine) turned out to be 0.154 ×10⁻⁶ cm/s; in series [1] (setting [3]), 0.042 ×10⁻⁶ cm/s.
